US8551984B2, “Aminopyrimidines as SYK inhibitors” (Merck Sharp & Dohme Corp., priority 2009, dated 2013)

Each molecule was assayed against rhSYK (Homo sapiens, UniProt P43405). Details: read-out: rhSYK Activity; Table 117.

Row | IC50 [nM] | SMILES
1 | < 100 | Cc1cc(Nc2nccc(C(F)(F)F)n2)cc(-c2cnc(C3(O)CCC(CC(N)=O)CC3)s2)c1 (centres unmarked) [Example 117-9]
2 | < 100 | Cc1cc(Nc2nccc(C(F)(F)F)n2)cc(-c2cnc(C3(O)CCC(CC(N)=O)CC3)s2)c1 (centres unmarked) [Example 117-10]

Same assay, conditions: read-out: rhSYK Activity; Table 119; two symbols in a cell = one per listed form

Row | IC50 [nM] | SMILES
3 | < 100 | Cc1cc(Nc2nccc(C(C)C)n2)cc(-c2cnc(C3(O)CCC(C(N)=O)C(C)C3)s2)c1 (centres unmarked) [Example 119-11]
4 | < 100 | COc1ccnc(Nc2cc(C)cc(-c3cnc(C4(O)CCC(C(N)=O)C(C)(C)C4)s3)c2)n1 (centres unmarked) [Example 119-13]
5 | < 100 | Cc1cc(Nc2nccc(C(C)O)n2)cc(-c2cnc(C3(O)CCC(C(N)=O)C(C)(C)C3)s2)c1 (centres unmarked) [Example 119-121]
6 | < 100 | Cc1cc(Nc2nccc(C(C)F)n2)cc(-c2cnc(C3(O)CCC(C(N)=O)C(C)(C)C3)s2)c1 (centres unmarked) [Example 119-123]
7 | < 100 | Cc1cc(Nc2nccc(OC(C)C)n2)cc(-c2cnc(C3(O)CCC(C(N)=O)C(C)(C)C3)s2)c1 (centres unmarked) [Example 119-126]
8 | < 100 | Cc1cc(Nc2nccc(C(F)(F)F)n2)cc(-c2cnc(C3(O)CCC(C(N)=O)C(C)(C)C3)s2)c1 (centres unmarked) [Example 119-132]

Same assay, conditions: read-out: rhSYK activity; class symbol given

Row | IC50 [nM] | SMILES
9 | < 100 | Cc1cc(Nc2nccc(C(F)(F)F)n2)cc(-c2cnc(C3(NS(=O)(=O)C(C)(C)C)COC3)s2)c1 [Example 61, 2-methyl-N-{3-[5-(3-methyl-5-{[4-(trifluoromethyl)pyrimidin-2-yl]amino}phenyl)-1,3-thiazol-2-yl]oxetan-3-yl}propane-2-sulfonamide]
10 | < 100 | CC(=O)NC1(c2ncc(-c3cc(C)cc(Nc4nccc(C(F)(F)F)n4)c3)s2)CCC1 [Example 66, N-{1-[5-(3-methyl-5-{[4-(trifluoromethyl)pyrimidin-2-yl]amino}phenyl)-1,3-thiazol-2-yl]cyclobutyl}acetamide]

These molecules were tested against recombinant human SYK (GST-hSYK fusion protein) (Homo sapiens, UniProt P43405). Details: read-out: rhSYK Activity (IC50); recombinant human GST-SYK 5 pM, ATP 25 μM, biotinylated substrate peptide 250 nM, HTRF, 10-dose titration.
Excerpt: Homogeneous Time-Resolved Fluorescence (HTRF) Assay for the Recombinant Human SYK Enzyme:

Row | IC50 [nM] | SMILES
11 | < 100 | Cc1cc(Nc2nccc(C(F)(F)F)n2)cc(-c2cnc([C@]3(O)CCC(=O)NC[C@H]3O)s2)c1 (relative stereo) [161(A), [cis]5,6-dihydroxy-5-[5-(3-methyl-5-{[4-(trifluoromethyl)pyrimidin-2-yl]amino}phenyl)-1,3-thiazol-2-yl]azepan-2-one]
12 | < 100 | Cc1cc(Nc2nccc(C(F)(F)F)n2)cc(-c2cnc(C3CCC(C(N)=O)C(C)(C)C3)s2)c1 (single isomer, unassigned) [154(b), 2,2-Dim ethyl-4-[5-(3-methyl-5-{[4-(trifluoromethyl)pyrimidin-2-yl]amino}phenyl)-1,3-thiazol-2-yl]cyclohexanecarboxamide]
13 | < 100 | Cc1cc(Nc2nccc(C(F)(F)F)n2)cc(-c2cnc(C3CCC(C(N)=O)C(C)(C)C3)s2)c1 (single isomer, unassigned) [154(c), 2,2-Dim ethyl-4-[5-(3-methyl-5-{[4-(trifluoromethyl)pyrimidin-2-yl]amino}phenyl)-1,3-thiazol-2-yl]cyclohexanecarboxamide]
14 | < 100 | Cc1cc(Nc2nccc(C(F)(F)F)n2)cc(-c2cnc(C3CCC(C(N)=O)C(C)(C)C3)s2)c1 (single isomer, unassigned) [154(d), 2,2-Dim ethyl-4-[5-(3-methyl-5-{[4-(trifluoromethyl)pyrimidin-2-yl]amino}phenyl)-1,3-thiazol-2-yl]cyclohexanecarboxamide]
15 | < 100 | Cc1cc(Nc2nccc(C(F)(F)F)n2)cc(-c2cnc(C3(O)CCNC(=O)CC3O)s2)c1 (single isomer, unassigned) [161(D), 4,5-dihydroxy-5-[5-(3-methyl-5-{[4-(trifluoromethyl)pyrimidin-2-yl]amino}phenyl)-1,3-thiazol-2-yl]azepan-2-one]

Same assay, conditions: read-out: rhSYK Activity; Table 10, Formula A

Row | IC50 [nM] | SMILES
16 | < 100 | Cc1cc(Nc2nccc(C(C)C)n2)cc(-c2cnc(C3(O)CCNC(=O)CC3)s2)c1 (single isomer, unassigned) [Example 10A-3]

Same assay, conditions: read-out: rhSYK Activity; Table 33-A

Row | IC50 [nM] | SMILES
17 | < 100 | Cc1cc(Nc2ncc(Cl)cn2)cc(-c2cnc(C3(O)CCC(C(=O)O)C(C)(C)C3)s2)c1 (single isomer, unassigned) [Example 33A-44]
18 | < 100 | COC(=O)C1CCC(O)(c2ncc(-c3cc(CO)cc(Nc4nccc(C(F)(F)F)n4)c3)s2)CC1(C)C (single isomer, unassigned) [Example 33A-52]
19 | < 100 | CC1(C)CC(O)(c2ncc(-c3cc(Nc4nccc(C(F)(F)F)n4)cc(C(F)F)c3)s2)CCC1C(=O)O (single isomer, unassigned) [Example 33A-58]
20 | < 100 | CC1(C)CC(O)(c2ncc(-c3cc(F)cc(Nc4nccc(C(F)(F)F)n4)c3)s2)CCC1C(=O)O (single isomer, unassigned) [Example 33A-64]
21 | < 100 | CC1(C)CC(O)(c2ncc(-c3cccc(Nc4nccc(C(F)(F)F)n4)c3)s2)CCC1C(=O)O (single isomer, unassigned) [Example 33A-67]
22 | < 100 | COc1ccnc(Nc2cc(C)cc(-c3cnc(C4(O)CCC(C(=O)O)C(C)(C)C4)s3)c2)n1 (single isomer, unassigned) [Example 33A-73]
23 | < 100 | Cc1cc(Nc2nccc(C(F)(F)F)n2)cc(-c2cnc(C3(O)CCC(C(=O)O)C(C)(C)C3C)s2)c1 (single isomer, unassigned) [Example 33A-78]

Same assay, conditions: read-out: rhSYK Activity; Table 33B

Row | IC50 [nM] | SMILES
24 | < 100 | Cc1cc(Nc2nccc(C(F)(F)F)n2)cc(-c2cnc(C3(O)CCC(CC(=O)O)C3)s2)c1 (single isomer, unassigned) [Example 33B-26]
25 | < 100 | Cc1cc(Nc2nccc(C(F)(F)F)n2)cc(-c2cnc(C3(O)CCC(CC(=O)O)C3)s2)c1 (single isomer, unassigned) [Example 33B-27]
26 | < 100 | Cc1cc(Nc2nccc(C(F)(F)F)n2)cc(-c2cnc(C3(O)CCC(CC(=O)O)C3)s2)c1 (single isomer, unassigned) [Example 33B-28]

Same assay, conditions: read-out: rhSYK Activity; Table 33C

Row | IC50 [nM] | SMILES
27 | < 100 | Cc1cc(Nc2nccc(C(F)(F)F)n2)cc(-c2cnc(C3(O)CC[C@H]4C(C(=O)O)[C@H]43)s2)c1 (single isomer, unassigned) [Example 33C-7]
28 | < 100 | Cc1cc(Nc2nccc(C(F)(F)F)n2)cc(-c2cnc(C3(O)CC[C@H]4C(C(=O)O)[C@H]43)s2)c1 (single isomer, unassigned) [Example 33C-8]

Same assay, conditions: read-out: rhSYK Activity; Table 33D

Row | IC50 [nM] | SMILES
29 | < 100 | Cc1cc(Nc2nccc(C(F)(F)F)n2)cc(-c2cnc(C(C)(O)CCC(C)(C)C(=O)O)s2)c1 (single isomer, unassigned) [Example 33D-2]
30 | < 100 | Cc1cc(Nc2nccc(C(F)(F)F)n2)cc(-c2cnc(C(C)(O)c3ccc(C(=O)O)s3)s2)c1 (single isomer, unassigned) [Example 33D-22]

Same assay, conditions: read-out: rhSYK Activity; Table 45

Row | IC50 [nM] | SMILES
31 | 100 to 1000 | Cc1cc(Nc2nccc(C(F)(F)F)n2)cc(-c2cnc(C3(O)CCCN(C(=O)OC(C)(C)C)CC3)s2)c1 (single isomer, unassigned) [45-2]

Same assay, conditions: read-out: rhSYK Activity; Table 54D

Row | IC50 [nM] | SMILES
32 | < 100 | Cc1cc(Nc2nccc(C(F)(F)F)n2)cc(-c2cnc(C3(O)CCCN(C(=O)CC(N)=O)CC3)s2)c1 (single isomer, unassigned) [Example 54D-21]
33 | < 100 | Cc1cc(Nc2nccc(C(F)(F)F)n2)cc(-c2cnc(C3(O)CCCN(C(=O)CC(=O)O)CC3)s2)c1 (single isomer, unassigned) [Example 54D-26]
34 | < 100 | Cc1cc(Nc2nccc(C(F)(F)F)n2)cc(-c2cnc(C3(O)CCCN(C(=O)C(O)CO)CC3)s2)c1 (single isomer, unassigned) [Example 54D-29]
35 | < 100 | Cc1cc(Nc2nccc(C(F)(F)F)n2)cc(-c2cnc(C3(O)CCCN(C(=O)c4cnn[nH]4)CC3)s2)c1 (single isomer, unassigned) [Example 54D-37]
36 | < 100 | Cc1cc(Nc2nccc(C(F)(F)F)n2)cc(-c2cnc(C3(O)CCCN(C(=O)c4cnon4)CC3)s2)c1 (single isomer, unassigned) [Example 54D-39]
37 | < 100 | Cc1cc(Nc2nccc(C(F)(F)F)n2)cc(-c2cnc(C3(O)CCCN(C(=O)CCC(N)=O)CC3)s2)c1 (single isomer, unassigned) [Example 54D-42]
38 | < 100 | Cc1cc(Nc2nccc(C(F)(F)F)n2)cc(-c2cnc(C3(O)CCCN(C(=O)c4cnnn4C)CC3)s2)c1 (single isomer, unassigned) [Example 54D-51]
39 | < 100 | Cc1cc(Nc2nccc(C(F)(F)F)n2)cc(-c2cnc(C3(O)CCCN(C(=O)Cn4ccnn4)CC3)s2)c1 (single isomer, unassigned) [Example 54D-53]
40 | < 100 | Cc1cc(Nc2nccc(C(F)(F)F)n2)cc(-c2cnc(C3(O)CCCN(C(=O)c4nnnn4C)CC3)s2)c1 (single isomer, unassigned) [Example 54D-58]
41 | < 100 | Cc1cc(Nc2nccc(C(F)(F)F)n2)cc(-c2cnc(C3(O)CCCN(C(=O)Cc4nnn[nH]4)CC3)s2)c1 (single isomer, unassigned) [Example 54D-60]
42 | < 100 | CCOC(=O)CC(=O)N1CCCC(O)(c2ncc(-c3cc(C)cc(Nc4nccc(C(F)(F)F)n4)c3)s2)CC1 (single isomer, unassigned) [Example 54D-74]
43 | < 100 | Cc1cc(Nc2nccc(C(F)(F)F)n2)cc(-c2cnc(C3(O)CCCN(C(=O)C(C)(CO)CO)CC3)s2)c1 (single isomer, unassigned) [Example 54D-80]
44 | < 100 | Cc1cc(Nc2nccc(C(F)(F)F)n2)cc(-c2cnc(C3(O)CCCN(C(=O)c4[nH]nnc4Cl)CC3)s2)c1 (single isomer, unassigned) [Example 54D-101]
45 | < 100 | Cc1cc(Nc2nccc(C(F)(F)F)n2)cc(-c2cnc(C3(O)CCCN(C(=O)c4nn[nH]c4C(F)(F)F)CC3)s2)c1 (single isomer, unassigned) [Example 54D-108]
46 | < 100 | Cc1cc(Nc2nccc(C(F)(F)F)n2)cc(-c2cnc(C3(O)CCCN(C(=O)c4n[nH]c(C(F)(F)F)n4)CC3)s2)c1 (single isomer, unassigned) [Example 54D-110]
47 | < 100 | Cc1cc(Nc2nccc(C(F)(F)F)n2)cc(-c2cnc(C3(O)CCCN(S(N)(=O)=O)CC3)s2)c1 (single isomer, unassigned) [Example 54D-117]
